Patent publication US6537948B1, “Uracil compounds and use thereof” (Sumitomo Chemical Company, Limited, priority 2000, dated 2003)

Key:
[1] = test system: barnyardgrass (Echinochloa crus-galli); experiment: Test Example 5: foliar treatment of field; assay type: in vivo; conditions: foliar spray, dosage 16 g/ha, 6 days after application
Method: (§1) A plastic pot having longer side of 27 cm, shorter side of 20 cm and depth of 7.5 cm was filled with soil and then seeded with ivyleaf morningglory (Ipomoea hederacea) and common cocklebur (Xanthium pensylvanicum). Three days after, barnyardgrass (Echinochloa crus-galli) was seeded therein and grown for 7 days in a greenhouse. Then, therein, transplanted were common lambsquarters (Chenopodium album), redroot pigweed and giant foxtail (Setaria faberi) which had been seeded and grown for 14 days in a green house in advance. The test plants were further grown in the greenhouse for 8 days. After then, present compound 7-7 was formulated into an emulsifiable concentrate according to Formulation Example 2 and then diluted to the prescribed amount with water containing a spreading agent and the dilution was uniformly sprayed over the foliage of the test plants with a sprayer at a rate of 1000 liters per hectare. After the application, the test plants were grown in the greenhouse for 6 days, and the herbicidal activity was examined.

[2] = test system: common cocklebur (Xanthium pensylvanicum); experiment: Test Example 5: foliar treatment of field; assay type: in vivo; conditions: foliar spray, dosage 16 g/ha, 6 days after application
Method: as §1

[3] = test system: common lambsquarters (Chenopodium album); experiment: Test Example 5: foliar treatment of field; assay type: in vivo; conditions: foliar spray, dosage 16 g/ha, 6 days after application
Method: as §1

[4] = test system: giant foxtail (Setaria faberi); experiment: Test Example 5: foliar treatment of field; assay type: in vivo; conditions: foliar spray, dosage 16 g/ha, 6 days after application
Method: as §1

[5] = test system: ivyleaf morningglory (Ipomoea hederacea); experiment: Test Example 5: foliar treatment of field; assay type: in vivo; conditions: foliar spray, dosage 16 g/ha, 6 days after application
Method: as §1

redroot pigweed = experiment: Test Example 5: foliar treatment of field; assay type: in vivo, Amaranthus retroflexus; conditions: foliar spray, dosage 16 g/ha, 6 days after application
Method: as §1

For `COC(=O)COc1ncccc1Oc1cc(-n2c(=O)cc(C(F)(F)F)n(C)c2=O)c(F)cc1Cl` [Compound 7-7, 3-{2-chloro-4-fluoro-5-[3-methyl-2,6-dioxo-4-(trifluoromethyl)-1,2,3,6-tetrahydropyrimidin-1-yl]phenoxy}-2-(methoxycarbonyl)methoxypyridine], the “growth of barnyardgrass (herbicidal activity)” value [1] was “completely controlled”, the “growth of common cocklebur (herbicidal activity)” value [2] was “completely controlled” and the “growth of common lambsquarters (herbicidal activity)” value [3] was “completely controlled”. For the same molecule, the “growth of giant foxtail (herbicidal activity)” value [4] was “completely controlled”, the “growth of ivyleaf morningglory (herbicidal activity)” value [5] was “completely controlled” and the “growth of redroot pigweed (herbicidal activity)” value (redroot pigweed) was “completely controlled”. The melting point was 52.2 °C.
